Like-named read-outs stand apart in the source and are kept apart here.
Experiments:
[1] = test system: SNU-16; experiment: SNU-16 gastric cancer CDX mouse model; format: in vivo
Text: Left panel: Tumor growth curves. Right panel: Body weight development. […] QW: once weekly treatment. p.o.: per oral. QD: once daily treatment. BID: twice daily treatment. QW: once weekly treatment.
Values larger than 100% indicate tumor regression.

[2] = test system: NCI-H69; experiment: NCI-H69 small cell lung cancer CDX mouse model; details: for Tumor growth inhibition: p <0.001
Protocol: The 30 mg/kg group was given initially QW at 30 mg/kg and from day 31 onwards was given once weekly at 60 mg/kg, as indicated.
In Table 2, tumor growth inhibition (TGI) calculations are based on additional growth of tumors, i.e., tumor sizes on the day of TGI estimation minus tumor sizes at the start of treatment are used for calculations. Values larger than 100% indicate tumor regression. […] The total daily dose of 60 mg/kg was administered as *single dose or given as **30 mg/kg BID (twice daily).

[3] = test system: LNCaP cells; experiment: Cell cycle distribution with siRNA-mediated knock-down of Rb and p53; format: cell-based; details: LNCaP treated with Rb/p53 siRNA, 24 h
Protocol: Top panel: Cell cycle distribution in LNCap cells treated with siRNA (2 bars on the right) in comparison to control LNCaP cells without siRNA treatment (2 bars in the middle), in the absence (−) or presence (+) of Compound 1 for 24 h at the indicated concentration. For comparison, DU-145 cells harboring a combined Rb1 and p53 loss-of-function are included (2 bars on the left). Lower panel: Western blot analysis according to the same experimental conditions as given for the top panel.
In in vitro studies using LNCaP PC cells, harboring wild-type Rb and p53 genes, the effect of Compound 1 on the cell cycle was investigated in the absence and presence of siRNA-mediated knock-down of Rb and p53 gene expression. […] This effect is hypothesized to be due to Compound 1-mediated perturbation of the interaction between p300 and DDR factors and subsequent impact on the late cell cycle checkpoints and the DDR leading to cell death.

[4] = Single dose oral gavage or intravenous PK in female cynomolgus monkeys, plasma; format: in vivo; details: for clearance / Vd / AUC(0-inf) / AUC(0-t) / Cmax / Tmax / half-life: female, cynomolgus monkey, plasma; for clearance: read-out: cleared (Cl), mean rate (converted); for Vd: read-out: mean volume of distribution (Vz)
Protocol: The objective of the study was to determine the PK profile of Compound 1 following a single oral gavage or intravenous injection administration on 5 different occasions to female cynomolgus monkeys.
Compound 1, was administered as consecutive single doses on 5 occasions, separated by a washout period, by either oral gavage (4 and 12 mg/kg, Days 1 and 8) or by slow bolus intravenous (IV) injection (0.2 and 0.6 mg/kg, Days 15 and 22) to a group of female monkeys. In a subset of dosing the influence of grapefruit juice was evaluated (Day 34). Each single dose (Days 1, 8, 15, 22, and 34) was separated by a 7-day washout period. Blood samples were collected on Days 1, 8, 15, 22 and 34 at selected time points, i.e., 15 min, 30 min, as well as 1, 2, 4, 6, 8, and 24 hours relative to treatment for analysis of the concentration of Compound 1 in plasma and subsequent calculation of PK parameters. Additional parameters monitored included mortality, clinical observations and body weight.

In the case of `CC(C)C[C@@H]1NCCN([C@@H](CC(C)C)C(=O)N2CCC3(C[C@@H]2C)OCC(CN2CCCC2)CO3)C1=O` (stereo partly drawn) [Compound 1, (S)-3-isobutyl-1-((S)-4-methyl-1-((S)-8-methyl-3-(pyrrolidin-1-ylmethyl)-1,5-dioxa-9-azaspiro[5.5]undecan-9-yl)-1-oxopentan-2-yl)piperazin-2-one], the Tumor growth inhibition ([1]; once weekly 60 mg/kg/day as 30 mg/kg BID, 6 weeks, p <0.001) is reported as 103% (<0.001)/**6 weeks, the “anti-tumor efficacy, weekly vs daily” value ([1]; weekly 30 mg/kg BID compared to 3 mg/kg daily) is reported as “comparable anti-tumor efficacy” and the body weight ([2]; 3 mg/kg oral daily continuous) is reported as “slight body weight loss”. For the same compound, the tumor response ([2]; 3 mg/kg oral daily continuous) was “regressions of tumors”, the tolerability ([2]; 3 mg/kg oral every other week) was “well tolerated” and the “anti-tumor activity, every other week vs daily” value ([2]; 3 mg/kg oral, every other week compared to same dose daily) was “almost the same anti-tumor growth activity”. For the same compound, the “anti-tumor activity, once weekly vs daily” value ([2]; 30 mg/kg once every seven days, 60 mg/kg weeks 4 to 7, compared to 3 mg/kg daily) was “same anti-tumor growth activity”, the body weight ([2]; intermittent (once weekly) dosing) was “did not cause significant body weight decreases” and the Tumor growth inhibition ([2]; once weekly 15 mg/kg/day, 7 weeks) was 58% (<0.001)/. For the same compound, the Tumor growth inhibition ([2]; once weekly 30 mg/kg/day, 3 weeks) was 76% (<0.001)/, the Tumor growth inhibition ([2]; once weekly 60 mg/kg/day, 4 weeks, after 3 weeks at 30 mg/kg) was 103% (<0.001)/ and the cell cycle response [3] was “increase of cells in the S-phase”. It also gave a clearance ([4]; Day 15 (IV 0.2 mg/kg)) of 43.2 mL/min/kg, a Vd ([4]; Day 15 (IV 0.2 mg/kg)) of 17.4 ± 2.2 L/kg and a clearance ([4]; Day 22 (IV 0.6 mg/kg)) of 41 mL/min/kg. For the same compound, the Vd ([4]; Day 22 (IV 0.6 mg/kg)) was 16.9 ± 1.91 L/kg, the AUC(0-inf) ([4]; IV 0.2 mg/kg) was 77.4 ng·h/mL and the AUC(0-t) ([4]; IV 0.2 mg/kg) was 76.2 ng·h/mL. The Cmax ([4]; IV 0.2 mg/kg) was 47.6 ng/mL, the Tmax ([4]; IV 0.2 mg/kg) was 0.08 h and the half-life ([4]; IV 0.2 mg/kg) was 4.64 h. It also gave an AUC(0-inf) ([4]; IV 0.6 mg/kg) of 244 ng·h/mL, an AUC(0-t) ([4]; IV 0.6 mg/kg) of 240 ng·h/mL and a Cmax ([4]; IV 0.6 mg/kg) of 162 ng/mL. For the same compound, the Tmax ([4]; IV 0.6 mg/kg) was 0.08 h, the half-life ([4]; IV 0.6 mg/kg) was 4.74 h and the AUC(0-inf) ([4]; po 4 mg/kg) was 17.3 ng·h/mL. For the same compound, the AUC(0-t) ([4]; po 4 mg/kg) was 16.9 ng·h/mL, the Cmax ([4]; po 4 mg/kg) was 5.52 ng/mL and the Tmax ([4]; po 4 mg/kg) was 0.5 h. For the same compound, the half-life ([4]; po 4 mg/kg) was 4.7 h, the AUC(0-inf) ([4]; po 12 mg/kg) was 133 ng·h/mL and the AUC(0-t) ([4]; po 12 mg/kg) was 130 ng·h/mL. The Cmax ([4]; po 12 mg/kg) was 53.6 ng/mL, the Tmax ([4]; po 12 mg/kg) was 0.83 h and the half-life ([4]; po 12 mg/kg) was 5.46 h. For the same compound, the clinical signs ([4]; intravenous doses up to 0.6 mg/kg) was “decrease in appetite”, the clinical signs ([4]; single oral doses up to 12 mg/kg) was “did not result in any adverse clinical signs” and the “Cmax increase with grapefruit juice prior to dosing” value ([4]; vs animals without grapefruit juice, Day 34) was 2 fold.
